Test results reported in patent US20250296971A1, “GASTRIC INHIBITORY PEPTIDE RECEPTOR LIGANDS” (priority 2021, published 2025).
*1 amine or outer side, *2 acyl side, *3 side chain or, on linkers, in order; H or OH if unused. Where a SMILES comes first, the peptide text is derived from it. Bridges are numbered along the chain shown (N, C = ends). [ ]: non-standard residue; d: D form. The star is where a group is joined. X5 = NC(=O)[C@H](CCCCNC(=O)CN1CCN(CC(=O)O)CCN(CC(=O)O)CCN(CC(=O)O)CC1)NC(=O)CCC(=O)NCCCOCCOCCOCCCN*; X25 = NC(=O)C(CCCCNC(=O)CN1CCN(CC(=O)O)CCN(CC(=O)O)CCN(CC(=O)O)CC1)NC(=O)CCC(=O)NCCCOCCOCCOCCCN*; Propanoyl(3-(1-naphthyl)) = O=C(CCc1cccc2ccccc12)*; NMeW = CN[C@@H](Cc1c[nH]c2ccccc12)C(=O)O; 1Nal = N[C@@H](Cc1cccc2ccccc12)C(=O)O; 2Nal = N[C@@H](Cc1ccc2ccccc2c1)C(=O)O; mXylylene = c1cc(C[*:1])cc(C[*:2])c1; Cha = N[C@@H](CC1CCCCC1)C(=O)O; NMeL = CN[C@@H](CC(C)C)C(=O)O; αMeL = CC(C)C[C@](C)(N)C(=O)O; NMeC = CN[C@@H](CS)C(=O)O; Aib = CC(C)(N)C(=O)O

Molecular target: T1, GIPR (CHO-K1-hGIPR cells) (Homo sapiens, UniProt P48546)
T1 construct: host or cells: CHO-K1
T1 sequence (P48546 22-466): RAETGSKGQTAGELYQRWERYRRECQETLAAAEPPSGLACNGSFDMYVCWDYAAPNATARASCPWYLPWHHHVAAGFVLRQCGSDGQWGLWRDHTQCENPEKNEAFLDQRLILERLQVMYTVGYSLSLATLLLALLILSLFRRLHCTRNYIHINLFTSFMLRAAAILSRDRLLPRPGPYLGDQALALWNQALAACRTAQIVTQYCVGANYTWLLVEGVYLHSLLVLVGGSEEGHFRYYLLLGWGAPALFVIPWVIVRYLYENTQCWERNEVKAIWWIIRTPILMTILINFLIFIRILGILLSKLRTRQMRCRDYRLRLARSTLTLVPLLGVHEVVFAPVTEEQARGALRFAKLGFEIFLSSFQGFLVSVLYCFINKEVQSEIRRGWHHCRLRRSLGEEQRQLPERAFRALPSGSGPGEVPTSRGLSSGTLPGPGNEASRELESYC
Experiment: FACS binding assay
Details: competition with 20 nM GIP-057, 4° C. for 1 hour, read-out: pIC50 Category (converted)
Procedure, shortened: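 CHO-K1 cells stably expressing human GIPR were detached with Accutase, suspended at 500.000 cells per mL in PBS with 1% FCS, and washed ice-cold. Bound peptide was detected with 1 μg/mL APC-streptavidin for 30 min on ice.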

IC50, > 1000 nM:
CC[C@H](C)[C@@H]1NC(=O)[C@H](CC(C)C)NC(=O)C(C)(C)NC(=O)[C@@H](NC(=O)[C@H](CC(C)C)NC(=O)[C@H](CCC(=O)O)NC(=O)[C@@H]2CCCN2C(=O)[C@H](Cc2c[nH]c3ccccc23)N(C)C(=O)[C@H](Cc2c[nH]c3ccccc23)NC(=O)[C@H](CC(=O)O)NC(C)=O)CSCc2cccc(c2)CSC[C@@H](C(=O)NCCCOCCOCCOCCCNC(=O)CCC(=O)N[C@@H](CCCCNC(=O)CN2CCN(CC(=O)O)CCN(CC(=O)O)CCN(CC(=O)O)CC2)C(N)=O)NC1=O [GIP-289, Ac-Asp-Trp-Nmw-Pro-Glu-Leu-[Cys(3MeBn)-Aib-Leu-Ile-Cys]-Ttds-Lys(DOTA)-NH2] (Ac-DW[NMeW]PELC[Aib]LIC-X5; linker 7-11 via mXylylene)
CC[C@H](C)[C@@H]1NC(=O)[C@H](CC(C)C)NC(=O)C(C)(C)NC(=O)[C@@H](NC(=O)[C@H](CC(C)C)N(C)C(=O)[C@H](CCC(=O)O)NC(=O)[C@@H]2CCCN2C(=O)[C@H](Cc2c[nH]c3ccccc23)NC(=O)[C@H](Cc2c[nH]c3ccccc23)NC(=O)[C@H](CC(=O)O)NC(C)=O)CSCc2cccc(c2)CSC[C@@H](C(=O)NCCCOCCOCCOCCCNC(=O)CCC(=O)N[C@@H](CCCCNC(=O)CN2CCN(CC(=O)O)CCN(CC(=O)O)CCN(CC(=O)O)CC2)C(N)=O)NC1=O [GIP-290, Ac-Asp-Trp-Trp-Pro-Glu-Nml-[Cys(3MeBn)-Aib-Leu-Ile-Cys]-Ttds-Lys(DOTA)-NH2] (Ac-DWWPE[NMeL]C[Aib]LIC-X5; linker 7-11 via mXylylene)
CC[C@H](C)[C@@H]1NC(=O)[C@H](CC(C)C)NC(=O)C(C)(C)NC(=O)[C@@H](N(C)C(=O)[C@H](CC(C)C)NC(=O)[C@H](CCC(=O)O)NC(=O)[C@@H]2CCCN2C(=O)[C@H](Cc2c[nH]c3ccccc23)NC(=O)[C@H](Cc2c[nH]c3ccccc23)NC(=O)[C@H](CC(=O)O)NC(C)=O)CSCc2cccc(c2)CSC[C@@H](C(=O)NCCCOCCOCCOCCCNC(=O)CCC(=O)N[C@@H](CCCCNC(=O)CN2CCN(CC(=O)O)CCN(CC(=O)O)CCN(CC(=O)O)CC2)C(N)=O)NC1=O [GIP-291, Ac-Asp-Trp-Trp-Pro-Glu-Leu-[Nmc(3MeBn)-Aib-Leu-Ile-Cys]-Ttds-Lys(DOTA)-NH2] (Ac-DWWPEL[NMeC][Aib]LIC-X5; linker 7-11 via mXylylene)
CC[C@H](C)[C@@H]1NC(=O)[C@H](CC(C)C)NC(=O)C(C)(C)NC(=O)[C@@H](NC(=O)[C@H](CC(C)C)NC(=O)[C@H](CCC(=O)O)NC(=O)[C@@H]2CCCN2C(=O)[C@H](Cc2c[nH]c3ccccc23)NC(=O)[C@H](Cc2c[nH]c3ccccc23)NC(=O)[C@H](CC(=O)O)NC(C)=O)CSCc2cccc(c2)CSC[C@@H](C(=O)NCCCOCCOCCOCCCNC(=O)CCC(=O)N[C@@H](CCCCNC(=O)CN2CCN(CC(=O)O)CCN(CC(=O)O)CCN(CC(=O)O)CC2)C(N)=O)N(C)C1=O [GIP-292, Ac-Asp-Trp-Trp-Pro-Glu-Leu-[Cys(3MeBn)-Aib-Leu-Ile-Nmc]-Ttds-Lys(DOTA)-NH2] (Ac-DWWPELC[Aib]LI[NMeC]-X5; linker 7-11 via mXylylene)
CC[C@H](C)[C@@H]1NC(=O)[C@H](CC(C)C)NC(=O)C(C)(C)NC(=O)[C@@H](NC(=O)[C@H](CC(C)C)NC(=O)[C@H](CCC(=O)O)NC(=O)[C@@H]2CCCN2C(=O)[C@H](Cc2c[nH]c3ccccc23)NC(=O)[C@H](Cc2cccc3ccccc23)NC(=O)[C@H](CC(=O)O)NC(C)=O)CSCc2cccc(c2)CSC[C@@H](C(=O)NCCCOCCOCCOCCCNC(=O)CCC(=O)N[C@@H](CCCCNC(=O)CN2CCN(CC(=O)O)CCN(CC(=O)O)CCN(CC(=O)O)CC2)C(N)=O)NC1=O [GIP-293, Ac-Asp-1Ni-Trp-Pro-Glu-Leu-[Cys(3MeBn)-Aib-Leu-Ile-Cys]-Ttds-Lys(DOTA)-NH2] (Ac-D[1Nal]WPELC[Aib]LIC-X5; linker 7-11 via mXylylene)
CC[C@H](C)[C@@H]1NC(=O)[C@H](CC(C)C)NC(=O)C(C)(C)NC(=O)[C@@H](NC(=O)[C@H](CC(C)C)NC(=O)[C@H](CCC(=O)O)NC(=O)[C@@H]2CCCN2C(=O)[C@H](Cc2ccc3ccccc3c2)NC(=O)[C@H](Cc2c[nH]c3ccccc23)NC(=O)[C@H](CC(=O)O)NC(C)=O)CSCc2cccc(c2)CSC[C@@H](C(=O)NCCCOCCOCCOCCCNC(=O)CCC(=O)NC(CCCCNC(=O)CN2CCN(CC(=O)O)CCN(CC(=O)O)CCN(CC(=O)O)CC2)C(N)=O)NC1=O (stereo partly drawn) [GIP-294, Ac-Asp-Trp-2Ni-Pro-Glu-Leu-[Cys(3MeBn)-Aib-Leu-Ile-Cys]-Ttds-Lys(DOTA)-NH2] (Ac-DW[2Nal]PELC[Aib]LIC-X25; linker 7-11 via mXylylene)
CC[C@H](C)[C@@H]1NC(=O)[C@H](CC(C)C)NC(=O)C(C)(C)NC(=O)[C@@H](NC(=O)[C@H](CC2CCCCC2)NC(=O)[C@H](CCC(=O)O)NC(=O)[C@@H]2CCCN2C(=O)[C@H](Cc2c[nH]c3ccccc23)NC(=O)[C@H](Cc2c[nH]c3ccccc23)NC(=O)[C@H](CC(=O)O)NC(C)=O)CSCc2cccc(c2)CSC[C@@H](C(=O)NCCCOCCOCCOCCCNC(=O)CCC(=O)N[C@@H](CCCCNC(=O)CN2CCN(CC(=O)O)CCN(CC(=O)O)CCN(CC(=O)O)CC2)C(N)=O)NC1=O [GIP-295, Ac-Asp-Trp-Trp-Pro-Glu-Cha-[Cys(3MeBn)-Aib-Leu-Ile-Cys]-Ttds-Lys(DOTA)-NH2] (Ac-DWWPE[Cha]C[Aib]LIC-X5; linker 7-11 via mXylylene)
CC[C@H](C)[C@@H]1NC(=O)[C@H](CC(C)C)NC(=O)C(C)(C)NC(=O)[C@@H](NC(=O)[C@](C)(CC(C)C)NC(=O)[C@H](CCC(=O)O)NC(=O)[C@@H]2CCCN2C(=O)[C@H](Cc2c[nH]c3ccccc23)NC(=O)[C@H](Cc2c[nH]c3ccccc23)NC(=O)[C@H](CC(=O)O)NC(C)=O)CSCc2cccc(c2)CSC[C@@H](C(=O)NCCCOCCOCCOCCCNC(=O)CCC(=O)N[C@@H](CCCCNC(=O)CN2CCN(CC(=O)O)CCN(CC(=O)O)CCN(CC(=O)O)CC2)C(N)=O)NC1=O [GIP-296, Ac-Asp-Trp-Trp-Pro-Glu-Aml-[Cys(3MeBn)-Aib-Leu-Ile-Cys]-Ttds-Lys(DOTA)-NH2] (Ac-DWWPE[αMeL]C[Aib]LIC-X5; linker 7-11 via mXylylene)
CC[C@H](C)[C@@H]1NC(=O)[C@H](CC(C)C)NC(=O)C(C)(C)NC(=O)[C@@H](NC(=O)[C@H](CC(C)C)NC(=O)[C@H](CCC(=O)O)NC(=O)[C@@H]2CCCN2C(=O)[C@H](Cc2c[nH]c3ccccc23)NC(=O)[C@H](Cc2c[nH]c3ccccc23)N(C)C(=O)[C@H](CC(=O)O)NC(C)=O)CSCc2cccc(c2)CSC[C@@H](C(=O)NCCCOCCOCCOCCCNC(=O)CCC(=O)N[C@@H](CCCCNC(=O)CN2CCN(CC(=O)O)CCN(CC(=O)O)CCN(CC(=O)O)CC2)C(N)=O)NC1=O [GIP-297, Ac-Asp-Nmw-Trp-Pro-Glu-Leu-[Cys(3MeBn)-Aib-Leu-Ile-Cys]-Ttds-Lys(DO TA)-NH2] (Ac-D[NMeW]WPELC[Aib]LIC-X5; linker 7-11 via mXylylene)
CC[C@H](C)[C@@H]1NC(=O)[C@H](CC(C)C)NC(=O)C(C)(C)NC(=O)[C@@H](NC(=O)[C@H](CC(C)C)NC(=O)[C@H](CCC(=O)O)NC(=O)[C@@H]2CCCN2C(=O)[C@H](Cc2cccc3ccccc23)NC(C)=O)CSCc2cccc(c2)CSC[C@@H](C(=O)NCCCOCCOCCOCCCNC(=O)CCC(=O)N[C@@H](CCCCNC(=O)CN2CCN(CC(=O)O)CCN(CC(=O)O)CCN(CC(=O)O)CC2)C(N)=O)NC1=O [GIP-298, Ac-1Ni-Pro-Glu-Leu-[Cys(3MeBn)-Aib-Leu-Ile-Cys]-Ttds-Lys(DOTA)-NH2] (Ac-[1Nal]PELC[Aib]LIC-X5; linker 5-9 via mXylylene)
CC[C@H](C)[C@@H]1NC(=O)[C@H](CC(C)C)NC(=O)C(C)(C)NC(=O)[C@@H](NC(=O)[C@H](CC(C)C)NC(=O)[C@H](CCC(=O)O)NC(=O)[C@@H]2CCCN2C(=O)CCc2cccc3ccccc23)CSCc2cccc(c2)CSC[C@@H](C(=O)NCCCOCCOCCOCCCNC(=O)CCC(=O)N[C@@H](CCCCNC(=O)CN2CCN(CC(=O)O)CCN(CC(=O)O)CCN(CC(=O)O)CC2)C(N)=O)NC1=O [GIP-299, Nph1p-Pro-Glu-Leu-[Cys(3MeBn)-Aib-Leu-Ile-Cys]-Ttds-Lys(DOTA)-NH2] ({Propanoyl(3-(1-naphthyl))}-PELC[Aib]LIC-X5; linker 4-8 via mXylylene)
CC(=O)N[C@@H](CC(=O)O)C(=O)N[C@@H](Cc1c[nH]c2ccccc12)C(=O)N[C@@H](Cc1cccc2ccccc12)C(=O)N1CCC[C@H]1C(=O)N[C@@H](CCC(=O)O)C(=O)N[C@H](CC(C)C)C(=O)N[C@H]1CSCc2cccc(c2)CSC[C@@H](C(=O)NCCCOCCOCCOCCCNC(=O)CCC(=O)N[C@@H](CCCCNC(=O)CN2CCN(CC(=O)O)CCN(CC(=O)O)CCN(CC(=O)O)CC2)C(N)=O)NC(=O)[C@@H](C(C)C)NC(=O)[C@H](CC(C)C)NC(=O)[C@H](C)NC1=O [GIP-300, Ac-Asp-Trp-1Ni-Pro-Glu-leu-[Cys(3MeBn)-Ala-Leu-val-Cys]-Ttds-Lys(DOTA)-NH2] (Ac-DW[1Nal]PE[dL]CAL[dV]C-X5; linker 7-11 via mXylylene)
